Test results: ChEMBL document CHEMBL5723584 (2023); call rule not given here

Tests used:
[1] = target: Dual specificity mitogen-activated protein kinase kinase 1 (Homo sapiens) (UniProt Q02750); experiment: activity of MEK1(h) at 1.0 µM in the Eurofins Kinase panel; settings: Compound concentration 1.0 uM
[2] = target: Inhibitor of nuclear factor kappa-B kinase subunit beta (Homo sapiens) (UniProt O14920); experiment: activity of IKKbeta(h) at 1.0 µM in the Eurofins Kinase panel; settings: Compound concentration 1.0 uM
[3] = target: Serine/threonine-protein kinase 32A (Homo sapiens) (UniProt Q8WU08); experiment: activity of STK32A(h) at 1.0 µM in the Eurofins Kinase panel; settings: Compound concentration 1.0 uM
[4] = target: Cyclin-dependent kinase-like 3 (Homo sapiens) (UniProt Q8IVW4); experiment: activity of CDKL3(h) at 1.0 µM in the Eurofins Kinase panel; settings: Compound concentration 1.0 uM
[5] = target: Ephrin type-A receptor 5 (Homo sapiens) (UniProt P54756); experiment: activity of EphA5(h) at 1.0 µM in the Eurofins Kinase panel; settings: Compound concentration 1.0 uM
[6] = target: Protein kinase C beta type (Homo sapiens) (UniProt P05771); experiment: activity of PKCbetaI(h) at 1.0 µM in the Eurofins Kinase panel; settings: Compound concentration 1.0 uM
[7] = target: Death-associated protein kinase 1 (Homo sapiens) (UniProt P53355); experiment: activity of DAPK1(h) at 1.0 µM in the Eurofins Kinase panel; settings: Compound concentration 1.0 uM
[8] = target: Serine/threonine-protein kinase ULK3 (Homo sapiens) (UniProt Q6PHR2); experiment: activity of ULK3(h) at 1.0 µM in the Eurofins Kinase panel; settings: Compound concentration 1.0 uM
[9] = target: Myosin light chain kinase 2, skeletal/cardiac muscle (Homo sapiens) (UniProt Q9H1R3); experiment: activity of MYLK2(h) at 1.0 µM in the Eurofins Kinase panel; settings: Compound concentration 1.0 uM
[10] = target: Serine/threonine-protein kinase B-raf (Homo sapiens) (UniProt P15056); experiment: activity of B-Raf(h) at 1.0 µM in the Eurofins Kinase panel; settings: Compound concentration 1.0 uM
[11] = target: Serine/threonine-protein kinase DCLK3 (Homo sapiens) (UniProt Q9C098); experiment: activity of DCAMKL3(h) at 1.0 µM in the Eurofins Kinase panel; settings: Compound concentration 1.0 uM
[12] = target: Ephrin type-B receptor 4 (Homo sapiens) (UniProt P54760); experiment: activity of EphB4(h) at 1.0 µM in the Eurofins Kinase panel; settings: Compound concentration 1.0 uM
[13] = target: BDNF/NT-3 growth factors receptor (Homo sapiens) (UniProt Q16620); experiment: activity of TrkB(h) at 1.0 µM in the Eurofins Kinase panel; settings: Compound concentration 1.0 uM
[14] = target: Tyrosine-protein kinase HCK (Homo sapiens) (UniProt P08631); experiment: activity of Hck(h) at 1.0 µM in the Eurofins Kinase panel; settings: Compound concentration 1.0 uM
[15] = target: Maternal embryonic leucine zipper kinase (Homo sapiens) (UniProt Q14680); experiment: activity of MELK(h) at 1.0 µM in the Eurofins Kinase panel; settings: Compound concentration 1.0 uM
[16] = target: Serine/threonine-protein kinase PRP4 homolog (Homo sapiens) (UniProt Q13523); experiment: activity of PRP4(h) at 1.0 µM in the Eurofins Kinase panel; settings: Compound concentration 1.0 uM
[17] = target: Serine/threonine-protein kinase LATS1 (Homo sapiens) (UniProt O95835); experiment: activity of LATS1(h) at 1.0 µM in the Eurofins Kinase panel; settings: Compound concentration 1.0 uM
[18] = target: Beta-adrenergic receptor kinase 1 (Homo sapiens) (UniProt P25098); experiment: activity of GRK2(h) at 1.0 µM in the Eurofins Kinase panel; settings: Compound concentration 1.0 uM
[19] = target: Dual specificity protein kinase CLK2 (Homo sapiens) (UniProt P49760); experiment: activity of CLK2(h) at 1.0 µM in the Eurofins Kinase panel; settings: Compound concentration 1.0 uM
[20] = target: Serine/threonine-protein kinase Nek4 (Homo sapiens) (UniProt P51957); experiment: activity of NEK4(h) at 1.0 µM in the Eurofins Kinase panel; settings: Compound concentration 1.0 uM
[21] = target: 5'-AMP-activated protein kinase catalytic subunit alpha-2 (Homo sapiens) (UniProt P54646); experiment: activity of AMPKalpha2(h) at 1.0 µM in the Eurofins Kinase panel; settings: Compound concentration 1.0 uM
[22] = target: Tyrosine-protein kinase Lck (Homo sapiens) (UniProt P06239); experiment: activity of Lck(h) activated at 1.0 µM in the Eurofins Kinase panel; settings: Compound concentration 1.0 uM
[23] = target: Myosin-IIIb (Homo sapiens) (UniProt Q8WXR4); experiment: activity of MYO3B(h) at 1.0 µM in the Eurofins Kinase panel; settings: Compound concentration 1.0 uM
[24] = target: Tyrosine-protein kinase Fes/Fps (Homo sapiens) (UniProt P07332); experiment: activity of Fes(h) at 1.0 µM in the Eurofins Kinase panel; settings: Compound concentration 1.0 uM
[25] = target: Mitogen-activated protein kinase kinase kinase 10 (Homo sapiens) (UniProt Q02779); experiment: activity of MLK2(h) at 1.0 µM in the Eurofins Kinase panel; settings: Compound concentration 1.0 uM
[26] = target: Casein kinase I isoform gamma-1 (Homo sapiens) (UniProt Q9HCP0); experiment: activity of CK1gamma1(h) at 1.0 µM in the Eurofins Kinase panel; settings: Compound concentration 1.0 uM
[27] = target: Epidermal growth factor receptor (Homo sapiens) (UniProt P00533); experiment: activity of EGFR(h) at 1.0 µM in the Eurofins Kinase panel; settings: Compound concentration 1.0 uM
[28] = target: NUAK family SNF1-like kinase 2 (Homo sapiens) (UniProt Q9H093); experiment: activity of NUAK2(h) at 1.0 µM in the Eurofins Kinase panel; settings: Compound concentration 1.0 uM
[29] = target: Cyclin-dependent kinase 2/cyclin E (Homo sapiens) (UniProt P24864+P24941+O96020); experiment: activity of CDK2/cyclinE(h) at 1.0 µM in the Eurofins Kinase panel; assay type: protein-complex assay; settings: Compound concentration 1.0 uM
[30] = target: G protein-coupled receptor kinase 5 (Homo sapiens) (UniProt P34947); experiment: activity of GRK5(h) at 1.0 µM in the Eurofins Kinase panel; settings: Compound concentration 1.0 uM
[31] = target: Serine/threonine-protein kinase STK11 (Homo sapiens) (UniProt Q15831); experiment: activity of LKB1(h) at 1.0 µM in the Eurofins Kinase panel; settings: Compound concentration 1.0 uM
[32] = target: Transient receptor potential cation channel subfamily M member 7 (Homo sapiens) (UniProt Q96QT4); experiment: activity of ChaK1(h) at 1.0 µM in the Eurofins Kinase panel; settings: Compound concentration 1.0 uM
[33] = target: NT-3 growth factor receptor (Homo sapiens) (UniProt Q16288); experiment: activity of TrkC(h) at 1.0 µM in the Eurofins Kinase panel; settings: Compound concentration 1.0 uM
[34] = target: Inhibitor of nuclear factor kappa-B kinase subunit epsilon (Homo sapiens) (UniProt Q14164); experiment: activity of IKKepsilon(h) at 1.0 µM in the Eurofins Kinase panel; settings: Compound concentration 1.0 uM
[35] = target: Cyclin-dependent kinase 5/CDK5 activator 1 (Homo sapiens) (UniProt Q00535+Q15078); experiment: activity of CDK5/p35(h) at 1.0 µM in the Eurofins Kinase panel; assay type: protein-complex assay; settings: Compound concentration 1.0 uM
[36] = target: Serine/threonine-protein kinase MAK (Homo sapiens) (UniProt P20794); experiment: activity of MAK(h) at 1.0 µM in the Eurofins Kinase panel; settings: Compound concentration 1.0 uM
[37] = target: RAC-gamma serine/threonine-protein kinase (Homo sapiens) (UniProt Q9Y243); experiment: activity of PKBgamma(h) at 1.0 µM in the Eurofins Kinase panel; settings: Compound concentration 1.0 uM
[38] = target: Aurora kinase A (Homo sapiens, UniProt O14965); experiment: Promega NanoBRET (AURKA)
[39] = target: Dual specificity tyrosine-phosphorylation-regulated kinase 2 (Homo sapiens) (UniProt Q92630); experiment: activity of DYRK2(h) at 1.0 µM in the Eurofins Kinase panel; settings: Compound concentration 1.0 uM

Tyrosine-protein kinase HCK (Homo sapiens), sequence (P08631 2-526 limits assumed): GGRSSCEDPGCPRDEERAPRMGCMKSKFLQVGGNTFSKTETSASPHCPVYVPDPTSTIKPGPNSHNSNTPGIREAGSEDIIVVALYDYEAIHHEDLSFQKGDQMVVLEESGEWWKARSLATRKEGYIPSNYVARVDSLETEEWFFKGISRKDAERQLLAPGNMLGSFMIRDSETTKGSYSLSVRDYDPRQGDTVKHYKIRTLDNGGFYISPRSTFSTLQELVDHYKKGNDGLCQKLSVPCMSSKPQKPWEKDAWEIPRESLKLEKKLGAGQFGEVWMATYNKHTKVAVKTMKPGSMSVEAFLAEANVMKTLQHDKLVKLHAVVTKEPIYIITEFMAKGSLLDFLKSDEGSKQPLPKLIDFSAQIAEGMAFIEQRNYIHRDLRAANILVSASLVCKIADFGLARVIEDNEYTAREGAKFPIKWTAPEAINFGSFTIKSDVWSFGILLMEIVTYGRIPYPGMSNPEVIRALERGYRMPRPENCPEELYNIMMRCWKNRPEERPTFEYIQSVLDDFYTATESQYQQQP
Serine/threonine-protein kinase STK11 (Homo sapiens), sequence (Q15831 whole entry): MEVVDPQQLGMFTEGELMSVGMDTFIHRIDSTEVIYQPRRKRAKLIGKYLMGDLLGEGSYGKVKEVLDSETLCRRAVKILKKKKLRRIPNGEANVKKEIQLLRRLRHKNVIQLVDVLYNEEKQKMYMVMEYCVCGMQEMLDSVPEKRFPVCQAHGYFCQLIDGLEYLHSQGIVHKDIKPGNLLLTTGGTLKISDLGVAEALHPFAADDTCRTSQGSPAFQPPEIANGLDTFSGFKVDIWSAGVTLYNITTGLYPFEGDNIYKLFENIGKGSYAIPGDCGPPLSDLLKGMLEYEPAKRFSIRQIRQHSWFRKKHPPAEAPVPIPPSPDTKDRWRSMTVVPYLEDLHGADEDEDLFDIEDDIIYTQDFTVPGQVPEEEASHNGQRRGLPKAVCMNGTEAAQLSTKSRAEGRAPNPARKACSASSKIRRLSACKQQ
Maternal embryonic leucine zipper kinase (Homo sapiens), sequence (Q14680 whole entry, looked up): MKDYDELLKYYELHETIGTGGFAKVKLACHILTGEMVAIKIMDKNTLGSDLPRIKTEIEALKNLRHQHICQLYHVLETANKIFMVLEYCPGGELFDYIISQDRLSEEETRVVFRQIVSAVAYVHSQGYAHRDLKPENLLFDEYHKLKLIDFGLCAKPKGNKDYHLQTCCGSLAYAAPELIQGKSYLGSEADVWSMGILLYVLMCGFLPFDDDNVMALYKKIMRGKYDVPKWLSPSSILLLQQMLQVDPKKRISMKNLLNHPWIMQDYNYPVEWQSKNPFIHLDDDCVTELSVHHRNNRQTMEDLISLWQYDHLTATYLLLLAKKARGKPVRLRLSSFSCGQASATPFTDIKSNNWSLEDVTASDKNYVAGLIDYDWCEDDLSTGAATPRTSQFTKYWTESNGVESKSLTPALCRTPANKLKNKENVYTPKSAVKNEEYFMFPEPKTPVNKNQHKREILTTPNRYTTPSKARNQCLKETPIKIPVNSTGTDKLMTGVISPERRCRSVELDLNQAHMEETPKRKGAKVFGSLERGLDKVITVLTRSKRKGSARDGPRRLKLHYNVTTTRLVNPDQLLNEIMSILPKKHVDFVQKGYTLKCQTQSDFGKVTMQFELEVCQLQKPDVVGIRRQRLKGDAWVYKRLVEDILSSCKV
Mitogen-activated protein kinase kinase kinase 10 (Homo sapiens), sequence (Q02779 whole entry, looked up, canonical isoform): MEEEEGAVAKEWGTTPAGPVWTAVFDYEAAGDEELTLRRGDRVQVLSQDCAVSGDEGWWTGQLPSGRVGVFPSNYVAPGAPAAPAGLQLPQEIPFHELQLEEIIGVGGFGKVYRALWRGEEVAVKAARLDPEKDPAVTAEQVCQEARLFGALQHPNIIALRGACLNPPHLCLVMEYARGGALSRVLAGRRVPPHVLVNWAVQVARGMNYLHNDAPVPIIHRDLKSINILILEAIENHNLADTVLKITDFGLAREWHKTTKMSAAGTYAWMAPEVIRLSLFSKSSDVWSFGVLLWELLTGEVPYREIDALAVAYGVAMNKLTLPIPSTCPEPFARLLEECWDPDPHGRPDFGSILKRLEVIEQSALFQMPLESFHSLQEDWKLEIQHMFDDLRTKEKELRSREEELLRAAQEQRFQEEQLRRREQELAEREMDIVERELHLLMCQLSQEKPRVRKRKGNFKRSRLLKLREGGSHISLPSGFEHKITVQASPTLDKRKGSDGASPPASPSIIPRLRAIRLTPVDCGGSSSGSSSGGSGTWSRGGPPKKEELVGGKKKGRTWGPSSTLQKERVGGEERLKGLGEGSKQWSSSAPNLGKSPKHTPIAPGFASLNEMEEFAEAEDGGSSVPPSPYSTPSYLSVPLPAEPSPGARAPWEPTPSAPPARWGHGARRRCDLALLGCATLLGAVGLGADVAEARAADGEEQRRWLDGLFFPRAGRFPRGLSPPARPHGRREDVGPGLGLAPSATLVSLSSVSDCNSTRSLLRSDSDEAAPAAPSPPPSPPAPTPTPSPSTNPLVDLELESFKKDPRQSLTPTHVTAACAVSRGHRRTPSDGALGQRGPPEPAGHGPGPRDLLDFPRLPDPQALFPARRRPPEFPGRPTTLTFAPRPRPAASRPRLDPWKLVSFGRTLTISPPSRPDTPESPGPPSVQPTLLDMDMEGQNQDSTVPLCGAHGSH
Transient receptor potential cation channel subfamily M member 7 (Homo sapiens), sequence (Q96QT4 whole entry): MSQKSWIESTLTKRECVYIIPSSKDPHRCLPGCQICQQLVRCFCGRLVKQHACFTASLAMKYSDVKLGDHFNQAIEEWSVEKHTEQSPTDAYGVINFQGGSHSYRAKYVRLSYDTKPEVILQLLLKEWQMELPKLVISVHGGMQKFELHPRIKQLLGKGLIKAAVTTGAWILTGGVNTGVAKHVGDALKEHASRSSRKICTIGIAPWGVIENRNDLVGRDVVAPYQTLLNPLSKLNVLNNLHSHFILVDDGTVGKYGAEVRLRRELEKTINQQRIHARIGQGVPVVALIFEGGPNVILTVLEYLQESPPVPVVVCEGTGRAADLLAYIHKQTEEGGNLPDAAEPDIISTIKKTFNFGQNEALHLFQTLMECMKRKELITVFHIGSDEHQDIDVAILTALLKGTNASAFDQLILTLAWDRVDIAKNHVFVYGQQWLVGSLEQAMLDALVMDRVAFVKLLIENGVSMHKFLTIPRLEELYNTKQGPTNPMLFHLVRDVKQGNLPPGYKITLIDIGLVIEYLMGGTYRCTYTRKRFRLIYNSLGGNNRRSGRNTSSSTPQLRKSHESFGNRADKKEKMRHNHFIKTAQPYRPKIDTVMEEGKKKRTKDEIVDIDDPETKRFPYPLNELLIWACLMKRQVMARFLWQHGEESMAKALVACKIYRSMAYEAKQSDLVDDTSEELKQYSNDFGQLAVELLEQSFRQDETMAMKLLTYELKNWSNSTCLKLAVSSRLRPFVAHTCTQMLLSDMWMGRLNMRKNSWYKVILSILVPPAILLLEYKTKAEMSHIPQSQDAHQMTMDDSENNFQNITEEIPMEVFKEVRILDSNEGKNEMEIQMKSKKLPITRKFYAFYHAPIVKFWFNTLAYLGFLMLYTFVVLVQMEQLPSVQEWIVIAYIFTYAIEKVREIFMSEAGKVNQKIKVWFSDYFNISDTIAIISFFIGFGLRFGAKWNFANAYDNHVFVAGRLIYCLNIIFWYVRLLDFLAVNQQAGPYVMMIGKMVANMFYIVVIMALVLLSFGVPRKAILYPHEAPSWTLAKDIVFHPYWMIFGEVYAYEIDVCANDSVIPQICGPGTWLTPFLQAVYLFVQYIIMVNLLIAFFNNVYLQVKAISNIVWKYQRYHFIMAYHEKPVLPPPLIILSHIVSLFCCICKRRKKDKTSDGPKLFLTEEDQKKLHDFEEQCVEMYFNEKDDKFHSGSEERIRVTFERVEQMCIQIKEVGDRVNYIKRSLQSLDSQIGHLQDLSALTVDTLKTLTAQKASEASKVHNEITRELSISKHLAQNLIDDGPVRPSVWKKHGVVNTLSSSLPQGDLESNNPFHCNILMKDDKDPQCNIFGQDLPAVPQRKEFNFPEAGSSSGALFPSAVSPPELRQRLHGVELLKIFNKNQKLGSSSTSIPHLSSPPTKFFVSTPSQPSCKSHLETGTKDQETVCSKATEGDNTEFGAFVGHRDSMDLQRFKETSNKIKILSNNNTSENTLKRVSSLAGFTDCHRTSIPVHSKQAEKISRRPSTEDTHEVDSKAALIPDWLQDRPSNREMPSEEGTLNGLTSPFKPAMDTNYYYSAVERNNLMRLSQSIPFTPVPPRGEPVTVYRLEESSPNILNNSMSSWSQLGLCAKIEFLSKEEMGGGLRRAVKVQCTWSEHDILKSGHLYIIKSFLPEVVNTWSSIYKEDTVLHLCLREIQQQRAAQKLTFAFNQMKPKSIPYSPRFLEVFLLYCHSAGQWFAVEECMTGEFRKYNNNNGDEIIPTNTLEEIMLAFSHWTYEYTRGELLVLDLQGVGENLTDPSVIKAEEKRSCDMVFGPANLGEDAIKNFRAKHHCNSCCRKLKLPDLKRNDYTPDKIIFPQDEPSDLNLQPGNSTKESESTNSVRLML
G protein-coupled receptor kinase 5 (Homo sapiens), sequence (P34947 whole entry, looked up): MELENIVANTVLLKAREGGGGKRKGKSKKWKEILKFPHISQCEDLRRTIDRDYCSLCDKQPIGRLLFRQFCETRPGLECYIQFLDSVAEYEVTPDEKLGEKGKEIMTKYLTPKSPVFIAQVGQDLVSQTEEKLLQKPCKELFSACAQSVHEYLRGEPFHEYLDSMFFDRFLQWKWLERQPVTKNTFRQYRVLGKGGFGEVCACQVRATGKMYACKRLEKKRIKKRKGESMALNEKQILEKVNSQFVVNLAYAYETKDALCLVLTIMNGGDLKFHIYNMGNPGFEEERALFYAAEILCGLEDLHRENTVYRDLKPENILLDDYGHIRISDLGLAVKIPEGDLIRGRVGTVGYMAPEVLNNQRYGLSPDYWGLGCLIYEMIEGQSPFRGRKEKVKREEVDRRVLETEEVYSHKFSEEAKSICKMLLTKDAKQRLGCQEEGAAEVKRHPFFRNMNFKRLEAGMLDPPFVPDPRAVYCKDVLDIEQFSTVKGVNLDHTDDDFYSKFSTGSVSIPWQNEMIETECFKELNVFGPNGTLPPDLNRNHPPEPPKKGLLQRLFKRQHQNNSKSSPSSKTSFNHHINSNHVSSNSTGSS

## Cc1cc2c(-c3ccc(NC(=O)[C@H](N)CC(C)(C)C)cc3C)ccnc2[nH]1
[1]
  activity: 101%
[2]
  activity: 99%
[3]
  activity: 90%
[4]
  activity: 79%
[5]
  activity: 89%
[6]
  activity: 90%
[7]
  activity: 82%
[8]
  activity: 95%
[9]
  activity: 76%
[10]
  activity: 110%
[11]
  activity: 86%
[12]
  activity: 107%
[13]
  activity: 84%
[14]
  activity: 99%
[15]
  activity: 82%
[16]
  activity: 100%
[17]
  activity: 90%
[18]
  activity: 95%
[19]
  activity: 106%
[20]
  activity: 90%
[21]
  activity: 117%
[22]
  activity: 119%
[23]
  activity: 79%
[24]
  activity: 111%
[25]
  activity: 77%
[26]
  activity: 101%
[27]
  activity: 107%
[28]
  activity: 72%
[29]
  activity: 92%
[30]
  activity: 97%
[31]
  activity: 99%
[32]
  activity: 106%
[33]
  activity: 86%
[34]
  activity: 87%
[35]
  activity: 79%
[36]
  activity: 120%
[37]
  activity: 101%
[38]
  IC50: > 10 µM (not active)
[39]
  activity: 101%
